Test results from ChEMBL document CHEMBL1275577, “Study of the in vitro activities of rifaximin and comparator agents against 536 anaerobic intestinal bacteria from the perspective of potential utility in pathology involving bowel flora” (Antimicrob Agents Chemother, 2009).
Converted amounts (≈) assume the structure as drawn.

Experiments:
Format in all cases: functional
Bacteroides fragilis = test: Antimicrobial activity against Bacteroides fragilis by Wadsworth agar dilution method
[1] = system: Parabacteroides goldsteinii; test: Antimicrobial activity against Parabacteroides goldsteinii by Wadsworth agar dilution method
Bacteroides stercoris = test: Antimicrobial activity against Bacteroides stercoris by Wadsworth agar dilution method
Bacteroides uniformis = test: Antimicrobial activity against Bacteroides uniformis by Wadsworth agar dilution method
[2] = system: Desulfovibrio desulfuricans; test: Antimicrobial activity against Desulfovibrio desulfuricans by Wadsworth agar dilution method
[3] = system: Desulfovibrio fairfieldensis; test: Antimicrobial activity against Desulfovibrio fairfieldensis by Wadsworth agar dilution method
Desulfovibrio vulgaris = test: Antimicrobial activity against Desulfovibrio vulgaris by Wadsworth agar dilution method; details: Nitratidesulfovibrio vulgaris
Fusobacterium nucleatum = test: Antimicrobial activity against Fusobacterium nucleatum by Wadsworth agar dilution method
Porphyromonas = test: Antimicrobial activity against Porphyromonas sp. by Wadsworth agar dilution method
Prevotella bivia = test: Antimicrobial activity against Prevotella bivia by Wadsworth agar dilution method
Prevotella corporis = test: Antimicrobial activity against Prevotella corporis by Wadsworth agar dilution method
Prevotella intermedia = test: Antimicrobial activity against Prevotella intermedia by Wadsworth agar dilution method
Hoylesella loescheii = test: Antimicrobial activity against Prevotella loescheii by Wadsworth agar dilution method
Clostridium hathewayi = test: Antimicrobial activity against Clostridium hathewayi by Wadsworth agar dilution method; details: Hungatella hathewayi
Flavonifractor plautii = test: Antimicrobial activity against Clostridium orbiscindens by Wadsworth agar dilution method
Clostridium bartlettii = test: Antimicrobial activity against Clostridium bartlettii by Wadsworth agar dilution method; details: Intestinibacter bartlettii
[4] = system: Paraclostridium bifermentans; test: Antimicrobial activity against Clostridium bifermentans by Wadsworth agar dilution method
Clostridium butyricum = test: Antimicrobial activity against Clostridium butyricum by Wadsworth agar dilution method
Clostridium cadaveris = test: Antimicrobial activity against Clostridium cadaveris by Wadsworth agar dilution method
Clostridium disporicum = test: Antimicrobial activity against Clostridium disporicum by Wadsworth agar dilution method
Clostridium fallax = test: Antimicrobial activity against Clostridium fallax by Wadsworth agar dilution method
[5] = system: Clostridium lactatifermentans; test: Antimicrobial activity against Clostridium lactatifermentans by Wadsworth agar dilution method; details: Anaerotignum lactatifermentans
Clostridium nexile = test: Antimicrobial activity against Clostridium nexile by Wadsworth agar dilution method; details: Faecalimonas nexilis
[6] = system: Clostridium paraputrificum; test: Antimicrobial activity against Clostridium paraputrificum by Wadsworth agar dilution method
Thomasclavelia ramosa = test: Antimicrobial activity against Clostridium ramosum by Wadsworth agar dilution method
Fusobacterium mortiferum = test: Antimicrobial activity against Clostridium rectum by Wadsworth agar dilution method
Clostridium subterminale = test: Antimicrobial activity against Clostridium subterminale by Wadsworth agar dilution method
Clostridium symbiosum = test: Antimicrobial activity against Clostridium symbiosum by Wadsworth agar dilution method
Schaalia meyeri = test: Antimicrobial activity against Actinomyces meyeri by Wadsworth agar dilution method
[7] = system: Bifidobacterium adolescentis; test: Antimicrobial activity against Bifidobacterium adolescentis by Wadsworth agar dilution method
Bifidobacterium breve = test: Antimicrobial activity against Bifidobacterium breve by Wadsworth agar dilution method
Bifidobacterium dentium = test: Antimicrobial activity against Bifidobacterium dentium by Wadsworth agar dilution method
Collinsella aerofaciens = test: Antimicrobial activity against Colinsella aerofaciens by Wadsworth agar dilution method
[8] = system: Coprobacillus cateniformis; test: Antimicrobial activity against Coprobacillus cateniformis by Wadsworth agar dilution method
[9] = system: Pseudoramibacter alactolyticus; test: Antimicrobial activity against Eubacterium alactolyticum by Wadsworth agar dilution method
Eubacterium cylindroides = test: Antimicrobial activity against Eubacterium cylindroides by Wadsworth agar dilution method; details: Faecalitalea cylindroides
Eubacterium limosum = test: Antimicrobial activity against Eubacterium limosum by Wadsworth agar dilution method
[10] = system: Lactobacillus catenaformis; test: Antimicrobial activity against Lactobacillus catenaformis by Wadsworth agar dilution method; details: Eggerthia catenaformis
[11] = system: Lacticaseibacillus rhamnosus; test: Antimicrobial activity against Lactobacillus rhamnosus by Wadsworth agar dilution method
Lactobacillus sp. = test: Antimicrobial activity against Lactobacillus sp. by Wadsworth agar dilution method
Finegoldia magna = test: Antimicrobial activity against Finegoldia magna by Wadsworth agar dilution method
Parvimonas micra = test: Antimicrobial activity against Peptostreptococcus micros by Wadsworth agar dilution method
[12] = system: Ruminococcus flavefaciens; test: Antimicrobial activity against Ruminococcus flavefaciens by Wadsworth agar dilution method
Ruminococcus gnavus = test: Antimicrobial activity against Ruminococcus gnavus by Wadsworth agar dilution method; details: Mediterraneibacter gnavus
Ruminococcus lactaris = test: Antimicrobial activity against Ruminococcus lactaris by Wadsworth agar dilution method
Blautia luti = test: Antimicrobial activity against Ruminococcus luti by Wadsworth agar dilution method
Ruminococcus obeum = test: Antimicrobial activity against Ruminococcus obeum by Wadsworth agar dilution method; details: Blautia obeum

CN[C@H](CC(C)C)C(=O)N[C@H]1C(=O)N[C@@H](CC(N)=O)C(=O)N[C@H]2C(=O)N[C@H]3C(=O)N[C@H](C(=O)N[C@H](C(=O)O)c4cc(O)cc(O)c4-c4cc3ccc4O)[C@H](O)c3ccc(c(Cl)c3)Oc3cc2cc(c3O[C@@H]2O[C@H](CO)[C@@H](O)[C@H](O)[C@H]2O[C@H]2C[C@](C)(N)[C@H](O)[C@H](C)O2)Oc2ccc(cc2Cl)[C@H]1O [VANCOMYCIN]
MIC50 (Bacteroides fragilis): 64 µg/mL (≈ 44.2 µM) | MIC90 (Bacteroides fragilis): 128 µg/mL (≈ 88.3 µM) | MIC50 [1]: 128 µg/mL (≈ 88.3 µM) | MIC90 [1]: 128 µg/mL (≈ 88.3 µM) | MIC (Bacteroides stercoris): 64 µg/mL (≈ 44.2 µM) | MIC50 (Bacteroides stercoris): 64 µg/mL (≈ 44.2 µM) | MIC90 (Bacteroides stercoris): 128 µg/mL (≈ 88.3 µM) | MIC (Bacteroides uniformis): 64 µg/mL (≈ 44.2 µM) | MIC50 (Bacteroides uniformis): 64 µg/mL (≈ 44.2 µM) | MIC90 (Bacteroides uniformis): 128 µg/mL (≈ 88.3 µM) | MIC50 [2]: > 1020 µg/mL | MIC90 [2]: > 1020 µg/mL | MIC50 [3]: > 1020 µg/mL | MIC90 [3]: > 1020 µg/mL | MIC50 (Desulfovibrio vulgaris): > 1020 µg/mL | MIC90 (Desulfovibrio vulgaris): > 1020 µg/mL | MIC50 (Fusobacterium nucleatum): 256 µg/mL (≈ 177 µM) | MIC90 (Fusobacterium nucleatum): 512 µg/mL (≈ 353 µM) | MIC50 (Porphyromonas): 4 µg/mL (≈ 2.76 µM) | MIC90 (Porphyromonas): 8 µg/mL (≈ 5.52 µM) | MIC50 (Prevotella bivia): 128 µg/mL (≈ 88.3 µM) | MIC90 (Prevotella bivia): 256 µg/mL (≈ 177 µM) | MIC50 (Prevotella corporis): 128 µg/mL (≈ 88.3 µM) | MIC90 (Prevotella corporis): 256 µg/mL (≈ 177 µM) | MIC50 (Prevotella intermedia): 128 µg/mL (≈ 88.3 µM) | MIC90 (Prevotella intermedia): 256 µg/mL (≈ 177 µM) | MIC50 (Hoylesella loescheii): 128 µg/mL (≈ 88.3 µM) | MIC90 (Hoylesella loescheii): 256 µg/mL (≈ 177 µM) | MIC50 (Clostridium hathewayi): 1 µg/mL (≈ 0.69 µM) | MIC90 (Clostridium hathewayi): 1 µg/mL (≈ 0.69 µM) | MIC50 (Flavonifractor plautii): 8 µg/mL (≈ 5.52 µM) | MIC90 (Flavonifractor plautii): 8 µg/mL (≈ 5.52 µM) | MIC50 (Clostridium bartlettii): 1 µg/mL (≈ 0.69 µM) | MIC90 (Clostridium bartlettii): 4 µg/mL (≈ 2.76 µM) | MIC50 [4]: 1 µg/mL (≈ 0.69 µM) | MIC90 [4]: 4 µg/mL (≈ 2.76 µM) | MIC50 (Clostridium butyricum): 1 µg/mL (≈ 0.69 µM) | MIC90 (Clostridium butyricum): 4 µg/mL (≈ 2.76 µM) | MIC50 (Clostridium cadaveris): 1 µg/mL (≈ 0.69 µM) | MIC90 (Clostridium cadaveris): 4 µg/mL (≈ 2.76 µM) | MIC50 (Clostridium disporicum): 1 µg/mL (≈ 0.69 µM) | MIC90 (Clostridium disporicum): 4 µg/mL (≈ 2.76 µM) | MIC50 (Clostridium fallax): 1 µg/mL (≈ 0.69 µM) | MIC90 (Clostridium fallax): 4 µg/mL (≈ 2.76 µM) | MIC50 [5]: 1 µg/mL (≈ 0.69 µM) | MIC90 [5]: 4 µg/mL (≈ 2.76 µM) | MIC50 (Clostridium nexile): 1 µg/mL (≈ 0.69 µM) | MIC90 (Clostridium nexile): 4 µg/mL (≈ 2.76 µM) | MIC50 [6]: 1 µg/mL (≈ 0.69 µM) | MIC90 [6]: 4 µg/mL (≈ 2.76 µM) | MIC50 (Thomasclavelia ramosa): 1 µg/mL (≈ 0.69 µM) | MIC90 (Thomasclavelia ramosa): 4 µg/mL (≈ 2.76 µM) | MIC50 (Fusobacterium mortiferum): 1 µg/mL (≈ 0.69 µM) | MIC90 (Fusobacterium mortiferum): 4 µg/mL (≈ 2.76 µM) | MIC50 (Clostridium subterminale): 1 µg/mL (≈ 0.69 µM) | MIC90 (Clostridium subterminale): 4 µg/mL (≈ 2.76 µM) | MIC50 (Clostridium symbiosum): 1 µg/mL (≈ 0.69 µM) | MIC90 (Clostridium symbiosum): 4 µg/mL (≈ 2.76 µM) | MIC50 (Schaalia meyeri): 1 µg/mL (≈ 0.69 µM) | MIC90 (Schaalia meyeri): 64 µg/mL (≈ 44.2 µM) | MIC50 [7]: 1 µg/mL (≈ 0.69 µM) | MIC90 [7]: 64 µg/mL (≈ 44.2 µM) | MIC50 (Bifidobacterium breve): 1 µg/mL (≈ 0.69 µM) | MIC90 (Bifidobacterium breve): 64 µg/mL (≈ 44.2 µM) | MIC50 (Bifidobacterium dentium): 1 µg/mL (≈ 0.69 µM) | MIC90 (Bifidobacterium dentium): 64 µg/mL (≈ 44.2 µM) | MIC50 (Collinsella aerofaciens): 1 µg/mL (≈ 0.69 µM) | MIC90 (Collinsella aerofaciens): 64 µg/mL (≈ 44.2 µM) | MIC50 [8]: 1 µg/mL (≈ 0.69 µM) | MIC90 [8]: 64 µg/mL (≈ 44.2 µM) | MIC50 [9]: 1 µg/mL (≈ 0.69 µM) | MIC90 [9]: 64 µg/mL (≈ 44.2 µM) | MIC50 (Eubacterium cylindroides): 1 µg/mL (≈ 0.69 µM) | MIC90 (Eubacterium cylindroides): 64 µg/mL (≈ 44.2 µM) | MIC50 (Eubacterium limosum): 1 µg/mL (≈ 0.69 µM) | MIC90 (Eubacterium limosum): 64 µg/mL (≈ 44.2 µM) | MIC50 [10]: 1 µg/mL (≈ 0.69 µM) | MIC90 [10]: 64 µg/mL (≈ 44.2 µM) | MIC50 [11]: 1 µg/mL (≈ 0.69 µM) | MIC90 [11]: 64 µg/mL (≈ 44.2 µM) | MIC50 (Lactobacillus sp.): 1 µg/mL (≈ 0.69 µM) | MIC90 (Lactobacillus sp.): 64 µg/mL (≈ 44.2 µM) | MIC50 (Finegoldia magna): 0.5 µg/mL (≈ 0.345 µM) | MIC90 (Finegoldia magna): 1 µg/mL (≈ 0.69 µM) | MIC50 (Parvimonas micra): 0.5 µg/mL (≈ 0.345 µM) | MIC90 (Parvimonas micra): 1 µg/mL (≈ 0.69 µM) | MIC50 [12]: 0.5 µg/mL (≈ 0.345 µM) | MIC90 [12]: 1 µg/mL (≈ 0.69 µM) | MIC50 (Ruminococcus gnavus): 0.5 µg/mL (≈ 0.345 µM) | MIC90 (Ruminococcus gnavus): 1 µg/mL (≈ 0.69 µM) | MIC50 (Ruminococcus lactaris): 0.5 µg/mL (≈ 0.345 µM) | MIC90 (Ruminococcus lactaris): 1 µg/mL (≈ 0.69 µM) | MIC50 (Blautia luti): 0.5 µg/mL (≈ 0.345 µM) | MIC90 (Blautia luti): 1 µg/mL (≈ 0.69 µM) | MIC50 (Ruminococcus obeum): 0.5 µg/mL (≈ 0.345 µM) | MIC90 (Ruminococcus obeum): 1 µg/mL (≈ 0.69 µM)
